From paper PMC8623179, “Design and Microwave Synthesis of New (5Z) 5-Arylidene-2-thioxo-1,3-thiazolinidin-4-one and (5Z) 2-Amino-5-arylidene-1,3-thiazol-4(5H)-one as New Inhibitors of Protein Kinase DYRK1A” (Pharmaceuticals, 2021)
Where “and” joins values, the source holds several entries; their conditions need not be identical. Identical values can stand only once. Like-named read-outs stand apart in the source and are kept apart here.

Tests used:
Caco2 = assay: Cell survival assay, Caco2; assay type: cell-based; conditions: Homo sapiens, Caco-2
Experimental: (§1) Skin diploid fibroblastic cells were provided by BIOPREDIC International Company (Rennes, France). […] Cells were grown according to ECACC recommendations. The toxicity test of the compounds on these cells was as follows: 2 × 10^3 cells for HCT-116 cells or 4 × 10^3 for the other cells were seeded in 96-multi-well plates in triplicate and left for 24 h for attachment, spreading and growing. Then, cells were exposed for 48 h to increasing concentrations of the compounds, ranging from […], in a final volume of 120 μL of culture medium. […] The IC50 were graphically determined.

GSK-3α/β [1] = assay: GSK-3α/β kinase assay; assay type: biochemical, porcine; conditions: Table 4; 15 μM ATP; read-out: IC50 GSK3α/β
Experimental: (§2) The twenty-two (5Z) 5-arylidene-2-thioxo-1,3-thiazolidin-4-ones 3a–v and the twenty-four (5Z) 2-amino-5-arylidene-1,3-thiazolidin-4(5H)-ones 5a–x were evaluated against four different and representative in vitro kinase assays DYRK1A (dual specificity tyrosine phosphorylation regulated kinase), CK1 δ/e (caseine kinase 1), CDK5/p25 (cyclin dependant kinase), and GSK3 α/β (glycogen synthase kinase 3) to evaluate their inhibition potency. […] All the compounds were initially tested at a 10 μM concentration.
(§3) After 30-min incubation at 30 °C, the reaction was stopped by harvesting, using a FilterMate harvester (Packard), onto P81 phospho-cellulose papers (GE Healthcare, Chicago, IL, USA) which were washed in 1% phosphoric acid. Scintillation fluid was added and the radioactivity measured in a Packard counter. Blank values were subtracted and activities calculated as pmoles of phosphate incorporated for the 30-min incubation. The activities were expressed in % of the maximal activity, i.e., in the absence of inhibitors. Controls were performed with appropriate dilutions of DMSO.
GSK-3α/β (porcine brain, native) was assayed, as described for CDK5/p25 but in Buffer A and using a GSK-3 specific substrate (GS-1: […]pEDEEE) (pS stands for phosphorylated serine). GS-1 was synthesized by Millegen (Labege, France).

CDK5/p25 = target: T1, CDK5/p25 (Homo sapiens, UniProt Q00535); assay: CDK5/p25 kinase assay; assay type: biochemical; conditions: Table 4; 15 μM ATP
T1 construct: made in house
T1 sequence (Q00535 whole entry): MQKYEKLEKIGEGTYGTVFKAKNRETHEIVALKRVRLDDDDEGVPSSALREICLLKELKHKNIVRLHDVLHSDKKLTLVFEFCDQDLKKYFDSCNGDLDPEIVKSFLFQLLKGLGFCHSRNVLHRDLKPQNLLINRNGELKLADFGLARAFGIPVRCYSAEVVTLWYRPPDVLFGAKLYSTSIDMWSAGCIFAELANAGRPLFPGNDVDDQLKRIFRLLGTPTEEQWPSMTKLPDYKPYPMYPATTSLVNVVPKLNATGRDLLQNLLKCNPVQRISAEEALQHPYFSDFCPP
T1 sequence (Q15078 99-307 partner limits assumed): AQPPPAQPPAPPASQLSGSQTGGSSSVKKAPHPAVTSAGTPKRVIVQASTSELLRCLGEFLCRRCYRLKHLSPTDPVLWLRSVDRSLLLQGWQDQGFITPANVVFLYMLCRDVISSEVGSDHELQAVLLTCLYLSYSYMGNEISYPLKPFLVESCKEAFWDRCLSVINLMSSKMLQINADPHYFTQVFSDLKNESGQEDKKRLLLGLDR
Experimental: as §2, §3
CDK5/p25 (human, recombinant) was prepared as previously described. […] ATP (3000 Ci/mmol; 10 mCi/mL) in a final volume of 30 μL. After 30-min incubation at 30 °C, 25 μL aliquots of supernatant were spotted onto 2.5 × 3 cm pieces of Whatman P81 phospho-cellulose paper, and, 20 s later, the filters were washed five times (for at least 5 min each time) in a solution of 10 mL phosphoric acid/litter of water. The wet filters were counted in the presence of 1 mL ACS (Amersham, UK) scintillation fluid.

HCT116 = assay: Cell survival assay, HCT116; assay type: cell-based; conditions: Homo sapiens, HCT-116
Experimental: as §1

PC3 = assay: Cell survival assay, PC3; assay type: cell-based; conditions: Homo sapiens, PC-3; 48 h exposure, nuclei count; read-out: Cell Lines IC50 PC3
Experimental: as §1

NCI-H727 = assay: Cell survival assay, NCI-H727; assay type: cell-based; conditions: Homo sapiens, 48 h exposure, nuclei count, read-out: Cell Lines IC50 NCI-H727
Experimental: as §1

DYRK1A [2] = target: T2, DYRK1A (Rattus norvegicus, UniProt Q63470); assay: DYRK1A kinase assay; assay type: biochemical; conditions: Table 4; 15 μM ATP
T2 construct: GST; made in house; host or cells: Escherichia coli
Experimental: as §2
as §3, with “DMSO. […]” for “DMSO.”

Fibroblasts = assay: Cell survival assay, normal skin diploid fibroblasts; assay type: cell-based; conditions: Fibroblast; normal cells, 48 h exposure, nuclei count; read-out: Cell Lines IC50 Fibroblasts
Experimental: as §1

Casein kinase 1 (CK1δ/ε) [3] = assay: CK1δ/ε kinase assay; assay type: biochemical, porcine; conditions: Table 4; 15 μM ATP; read-out: IC50 CK1
Experimental: as §2, §3
Casein kinase 1 (CK1δ/ε) (porcine brain, native) was assayed with 0.67 µg of CKS peptide ([…]pSAYSITA), a CK1 specific substrate obtained from Millegen (Labege, France).

Huh7 D12 = assay: Cell survival assay, Huh7 D12; assay type: cell-based; conditions: Huh-7D12; 48 h exposure, nuclei count; read-out: Cell Lines IC50 Huh7 D12
Experimental: as §1

MDA-MB231 = assay: Cell survival assay, MDA-MB231; assay type: cell-based; conditions: Homo sapiens, MDA-MB-231; 48 h exposure, nuclei count; read-out: Cell Lines IC50 MDA-MB231
Experimental: as §1

DYRK1A [4] = conditions: reported; cited from earlier work
Casein kinase 1 (CK1δ/ε) [5] = conditions: read-out: IC50 CK1, positive control, cited from earlier work
GSK-3α/β [6] = conditions: read-out: IC50 GSK3α/β, positive control, cited from earlier work
[7] = Table 5, same values as Table 4

| Structure (SMILES) | IC50 (Caco2; 48 h exposure, nuclei count, read-out: Cell Lines IC50 Caco2) [µM] | IC50 (Caco2; read-out: IC50 Caco2) [µM] | IC50 (GSK-3α/β [1]) [µM] | IC50 (CDK5/p25) [µM] | IC50 (HCT116; 48 h exposure, nuclei count, read-out: Cell Lines IC50 HCT116) [µM] | IC50 (HCT116; read-out: IC50 HCT 116) [µM] | IC50 (PC3) [µM] | melting point [°C] | IC50 (NCI-H727) [µM] | IC50 (DYRK1A [2]) [µM] | IC50 (Fibroblasts) [µM] | IC50 (Casein kinase 1 (CK1δ/ε) [3]) [µM] | IC50 (Huh7 D12) [µM] | IC50 (MDA-MB231) [µM] | IC50 (DYRK1A [4]) | IC50 (Casein kinase 1 (CK1δ/ε) [5]; Table 4) [µM] | IC50 (Casein kinase 1 (CK1δ/ε) [5]; [7]) [µM] | IC50 (GSK-3α/β [6]; Table 4) [µM] | IC50 (GSK-3α/β [6]; [7]) [µM] |
| --- | --- | --- | --- | --- | --- | --- | --- | --- | --- | --- | --- | --- | --- | --- | --- | --- | --- | --- | --- |
| O=C1NC(=S)S/C1=C\c1ccc2c(c1)CCO2 [Compound 3g, (5Z)-5-(2,3-Dihydro-benzofuran-5-ylmethylene)-2-thioxo-1,3-thiazolidin-4-one] | > 25 | 8 | ≥ 10 | > 10 | > 25 | 6 | > 25 | 250 to 252 | > 25 | 0.09 | > 25 | > 10 | > 25 | > 25 | – | – | – | – | – |
| COc1ccc2c(c1)[nH]c1c(C)nccc12 [Harmine] | – | – | – | – | – | – | – | – | – | – | – | – | – | – | […] | 1.5 | 1.5 | > 10 | > 10 |
